Literature values in publication PMC12394750, “2H-1,4-Benzoxazin-3(4H)-one linked 1,2,3-triazole derivatives and their study on inducing DNA damage in tumor cells” (Frontiers in Pharmacology, 2025).

How the values were obtained:
[1] = molecular target: mineralocorticoid receptor; parameters: method as in Hasui et al., 2011; details: ref Hasui et al., 2011; read-out: Mineralocorticoid receptor antagonist IC50; cited from earlier work
A549 cancer cells = tested on: A549 cancer cells; parameters: method as in Feng et al., 2010; details: ref Feng et al., 2010; cited from earlier work
MV4-11 cancer cells = tested on: MV4-11 cancer cells; parameters: method as in Feng et al., 2010; details: ref Feng et al., 2010; cited from earlier work
DLD-1 cancer cells = tested on: DLD-1 cancer cells; parameters: method as in Feng et al., 2010; details: ref Feng et al., 2010; cited from earlier work
MCF-7 cells = tested on: MCF-7 cells; parameters: method as in Nagavelli et al., 2016; details: ref Nagavelli et al., 2016; cited from earlier work
HeLa cells = tested on: HeLa cells; parameters: method as in Nagavelli et al., 2016; details: ref Nagavelli et al., 2016; cited from earlier work
A549 cell = tested on: A549 cell; parameters: method as in Zhou et al., 2014; details: ref Zhou et al., 2014; read-out: Inhibition of A549 cell proliferation, IC50; cited from earlier work

Cc1cc(F)ccc1-n1nc(C(F)(F)F)cc1-c1ccc2c(c1)NC(=O)CO2 [compound 14n]
IC50 [1]: 0.041 µM

O=C1COc2ccc(-c3[nH]c(-c4ccc(C(F)(F)F)cc4)nc3-c3ccccc3)cc2N1 [compound 9c]
Viability of A549 cancer cells (A549 cancer cells): significantly reduced | Viability of MV4-11 cancer cells (MV4-11 cancer cells): significantly reduced | Viability of DLD-1 cancer cells (DLD-1 cancer cells): significantly reduced

COc1cccc(-c2ccc3c(c2)OCC(=O)N3Cc2cn(-c3cc(Cl)cc(Cl)c3)nn2)c1 [compound 5b]
Cytotoxicity against MCF-7, IC50 (MCF-7 cells): 17.08 µg/mL | Cytotoxicity against HeLa, IC50 (HeLa cells): 15.38 µg/mL

COc1cc(/C=C/C(=O)c2ccc3c(c2)NC(=O)CO3)cc(OC)c1 [compound 3c]
IC50 (A549 cell): 3.29 µM
